These results are taken from patent publication US10064865B2, “Composition comprising phosphodiesterase type 5 inhibitor for inhibiting apoptosis of nerve cells” (ARIBIO INC., priority 2012, dated 2018).

Each structure is given as a SMILES string. Marks after values point to notes of the source that are not given here.

Type in all cases: in vivo, Sprague-Dawley (SD) rats
Assay [1] can be described thus: Example 1 body weight measurements. The settings on record: for Body weights at 1 day before surgery / Body weights at surgery [A]: before treatment, in g. How it is done: Changes of body weight were measured at 1 day before neuron apoptosis, the day of neuron apoptosis, 1, 7 14, 21, 28 and 29 days after neuron apoptosis using an automatic electronic balance. To reduce the individual differences, the body weight gains after neuron apoptosis and continuous oral treatment of materials were calculated as follows. Body weight gains (g) during 29 days after neuron apoptosis=(Body weight at the 29 days after neuron apoptosis−body weight at the day of neuron apoptosis) [EQUATION 2]
All data were expressed as mean±standard deviation (S.D.) of ten rats. Multiple comparison tests for different dose groups were conducted. Variance homogeneity was examined using the Levene test (Levene A, Clin Otalary, 1981; 6:145-51). […] Statistical analyses were conducted using SPSS (Release 14K, SPSS Inc., USA; Ludbrook, Clin Exp Pharmacol Physiol, 1997; 24:294-6). In addition, the percent changes between neuron apoptosis control and mirodenafil treated rats were calculated to help the understanding of the efficacy of test material as follow equation 3. Percentage changes as compared with neuron apoptosis control (%)=[((Data of mirodenafil treated groups−Data of neuron apoptosis control)/Data of neuron apoptosis control)×100] [EQUATION 3]

Another assay deals with PARP. Briefly: Example 2 immunohistochemistry: PARP-immunoreactive cells. The note with it: for Numbers of neurons: PARP+: 1 mg/kg s.c. once a day for 14 days, 29 days after neuron apoptosis. As for the experimental part: The induction of neuron apoptosis was carried out by damaging the right hemisphere of the brain of animals. Specifically, animals were anesthetized with 2 or 3% isoflurane in the mixture of 70% N2O and 28.5% O2, and were maintained with 1 to 1.5% isoflurane in the mixture of 70% N2O and 28.5% O2. After that the temporalis muscle was bisected and reflected through an incision made midway between the eye and the eardrum canal. The proximal MCA was exposed through a subtemporal craniectomy by microdental drills without removing the zygomatic arch and without transecting the facial nerve. […] Mortality was less than 5%. For sham control, all procedures were performed in the same way, with the exception of the occlusion of the MCA.
After deparaffinized of prepared […] histological paraffin sections, citrate buffer antigen (epitope) retrieval pretreatment were conducted as previously (Shi S R et al., J Histochem Cytochem. 41:1599-604(1993)). Briefly, pre-heat water bath with staining dish containing 10 mM citrate buffers (pH 6.0) until temperature reaches 95-100° C. Immerse slides in the staining dish and place the lid loosely on the staining dish. Incubate for 20 minutes and turn off the water bath. Place the staining dish at room temperature and allow the slides to cool for 20 minutes. After epitope retrievals, sections were immunostained using avidin-biotin complex (ABC) methods for caspase-3 and PARP. Endogenous peroxidase activity was blocked by incubated in methanol and 0.3% H2O2 for 30 minutes, and non-specific binding of immunoglobulin was blocked with normal horse serum blocking solution (Vector Lab., Burlingame, Calif., USA. Dilution 1:100) for 1 hr in humidity chamber. Primary antiserum were treated for overnight at 4° C. in humidity chamber, and then incubated with biotinylated universal secondary antibody (Vector Lab., Dilution 1:50) and ABC reagents (Vectastain Elite ABC Kit, Vector Lab., Dilution 1:50) for 1 hr at room temperature in humidity chamber. Finally, reacted with peroxidae substrate kit (Vector Lab.) for 3 min at room temperature. All sections were rinse in 0.01M PBS for 3 times, between steps. The neurons occupied by over 10% of immunoreactivities, the density, of each antiserum for caspase-3 and PARP were regarded as positive, and the mean numbers of caspase-3 and PARPimmunoreactive cells dispersed in the mm^2 of ipsilateral peri-infarct/defect cerebral cortex were counted using an automated image analysis process as establish methods (Lee et al., 2010; Song et al., 2012), respectively. The histopathologist was blinded to the group distribution when performing the analysis.
(§1) All data were expressed as mean±standard deviation (S.D.) of ten rats. Multiple comparison tests for different dose groups were conducted. Variance homogeneity was examined using the Levene test (Levene A, Clin Otalary, 1981; 6:145-51). […] Statistical analyses were conducted using SPSS for Windows (Release 14K, SPSS Inc., USA; Ludbrook, Clin Exp Pharmacol Physiol, 1997; 24:294-6). In addition, the percent changes as compared with neuron apoptosis control and mirodenafil treated rats were calculated to help the understanding of the efficacy of test substances as follow Equation 6 and 7. Percentage Changes as Compared with Sham Control (%)=[((Data of neuron apoptosis control−Data of sham control rat)/Data of sham control rats)×100] [EQUATION 6] Percentage Changes as Compared with neuron apoptosis Control (%)=[((Data of test material treated rats−Data of neuron apoptosis control rats)/Data of neuron apoptosis control rats)×100] [EQUATION 7]

For assay [2], the system named is neuron apoptosis-operated rats. Briefly: Example 2 body swing test. How it is done: Sensorimotor function was evaluated by use of limb placing (de Ryck M et al., Stroke. 20:1383-90(1989)) and body swing (Borlongan and Sanberg, J Neurosci. 15:5372-8(1995)) tests. These tests were performed at 1 and 28 days after neuron apoptosis. The investigator performing the surgery and behavioral assessments was blinded to treatment assignment.
Body swing tests: Animals were held approximately 2 cm from the base of its tail and elevated to an inch above a surface of a table. A swing was recorded whenever the rat moved its head out of the vertical axis to either side by more than 10° from vertical and then returned to the vertical position. Thirty total swings were counted per animal. After right-hemisphere neuron apoptosis, animals tend to swing to the contralateral (left) side. Thus, the numbers and percentages of body swings to the ipsilateral (right) side were recorded as a measure of recovery, with an intact animal scoring.
as §1

The nature of assay [3]: Example 1 body weight measurements. The note with it: for Weight gains [B − A]: during 29 days after neuron apoptosis.
[4] abbreviates: 1 mg/kg from 24 hrs after surgery.
[5] abbreviates: 1 mg/kg from 72 hrs after surgery.
Setting [6] is: 1 mg/kg from 168 hrs after surgery.

Turning to `CCCOc1ccc(S(=O)(=O)N2CCN(CCO)CC2)cc1-c1nc2c(CCC)cn(CC)c2c(=O)[nH]1` [Mirodenafil, mirodenafil], the “Body weights at 1 day before surgery” value in assay [1] (0.5 mg/kg group) was determined as 540.70 ± 23.66; in assay [1] (1 mg/kg group), 539.70 ± 27.54; in assay [1] (2 mg/kg group), 543.30 ± 26.39. Besides, the results for the “Body weights at surgery [A]” value in assay [1] (0.5 mg/kg group), in assay [1] (1 mg/kg group) and in assay [1] (2 mg/kg group) were 510.20 ± 26.08, 510.30 ± 28.32 and 513.40 ± 27.21, respectively. Further, the entries for the “body weight gains during 29 days, change as compared with neuron apoptosis control” value in assay [1] (1 mg/kg), in assay [1] (2 mg/kg) and in assay [3] (0.5 mg/kg) were 218.52%, 155.74% and 45.53%, respectively. Also, the “numbers of PARP-immunoreactive neurons at 29 days, change as compared with neuron apoptosis control” value in the assay on PARP (setting [4]) is reported as −53.92%; with PARP (setting [5]), −39.72%; in the assay with PARP (setting [6]), −15.68%. The results for the “Numbers of neurons: PARP+” value in the assay on PARP (start 24 hrs after operation), in the assay on PARP (start 72 hrs after operation) and in the assay with PARP (start 168 hrs after operation) were 36.14 ± 5.32^ab cells/mm^2 of cerebral cortex, 47.28 ± 5.36^ab cells/mm^2 of cerebral cortex and 66.13 ± 9.61^ac cells/mm^2 of cerebral cortex, respectively. Further, the results for the “numbers and percentages of body swings to ipsilateral right sides at 28 days, change as compared with neuron apoptosis control” value in assay [2] (setting [4]), in assay [2] (setting [5]) and in assay [2] (setting [6]) were 82.00%, 48.00% and 14.00%, respectively. The “Body weights at 29 days after surgery [B]” value in assay [3] (0.5 mg/kg s.c. once a day) is on record as 502.60 ± 23.09^a; in assay [3] (1 mg/kg s.c. once a day), 526.40 ± 23.45^bd; in assay [3] (2 mg/kg s.c. once a day), 520.90 ± 30.21^b. Moreover, the figures for the “Weight gains [B − A]” value in assay [3] (0.5 mg/kg s.c. once a day), in assay [3] (1 mg/kg s.c. once a day) and in assay [3] (2 mg/kg s.c. once a day) were −7.60 ± 9.19^a g, 16.10 ± 7.80^ac g and 7.50 ± 11.20^ac g, respectively.
